Experimental data: ChEMBL document CHEMBL1137662, “Effect of oral treatment with hexadecyloxypropyl-[(S)-9-(3-hydroxy-2- phosphonylmethoxypropyl)adenine] [(S)-HPMPA] or octadecyloxyethyl-(S)-HPMPA on cowpox or vaccinia virus infections in mice” (Antimicrob Agents Chemother, 2007)
Calls of active or inactive are those of the source. No cut-off for these calls is given here.

Tests used:
Vaccinia virus [1] = assay: Antiviral activity against Vaccinia virus WR infected BALB/c mouse assessed as mean death day at 30 mg/kg, po treated for 5 days after 48 hrs of viral inoculation; format: functional, Orthopoxvirus vaccinia
Cowpox virus [2] = assay: Antiviral activity against Cowpox virus Brighton infected BALB/c mouse assessed as mean death day at 30 mg/kg, po treated for 5 days after 24 hrs of viral inoculation; format: functional, Cowpox virus (Brighton Red)
Vaccinia virus [3] = assay: Antiviral activity against Vaccinia virus WR infected BALB/c mouse assessed as mean death day at 30 mg/kg, po treated for 5 days after 72 hrs of viral inoculation; format: functional, Orthopoxvirus vaccinia
Vaccinia virus [4] = assay: Toxicity in Vaccinia virus WR infected BALB/c mouse assessed as survival at 30 mg/kg, po treated for 5 days after 24 hrs of viral inoculation; format: functional, organism-based; parameters: dose 30 mg/kg; conditions: Orthopoxvirus vaccinia
Vaccinia virus [5] = assay: Antiviral activity against Vaccinia virus WR infected BALB/c mouse assessed as mean death day at 3 mg/kg, po treated for 5 days after 48 hrs of viral inoculation; format: functional, Orthopoxvirus vaccinia
Vaccinia virus [6] = assay: Antiviral activity against Vaccinia virus WR infected BALB/c mouse assessed as mean death day at 10 mg/kg, po treated for 5 days after 48 hrs of viral inoculation; format: functional, Orthopoxvirus vaccinia
Vaccinia virus [7] = assay: Antiviral activity against Vaccinia virus WR infected BALB/c mouse assessed as mean death day at 3 mg/kg, po treated for 5 days after 72 hrs of viral inoculation; format: functional, Orthopoxvirus vaccinia
Cowpox virus [8] = assay: Antiviral activity against Cowpox virus Brighton infected BALB/c mouse assessed as log reduction of viral titer per gram of kidney at 30 mg/kg, po treated for 5 days after 24 hrs of viral inoculation; format: functional, Cowpox virus (Brighton Red)
Vaccinia virus [9] = assay: Antiviral activity against Vaccinia virus WR infected BALB/c mouse assessed as mean death day at 30 mg/kg, po treated for 5 days after 24 hrs of viral inoculation; format: functional, Orthopoxvirus vaccinia
Vaccinia virus [10] = assay: Antiviral activity against Vaccinia virus WR infected BALB/c mouse assessed as mortality at 3 mg/kg, po treated for 5 days after 48 hrs of viral inoculation; format: functional, Orthopoxvirus vaccinia
Cowpox virus [11] = assay: Toxicity in Cowpox virus Brighton infected BALB/c mouse assessed as survival at 30 mg/kg, po treated for 5 days after 24 hrs of viral inoculation; format: functional, organism-based; parameters: dose 30 mg/kg; conditions: Cowpox virus (Brighton Red)
Vaccinia virus [12] = assay: Antiviral activity against Vaccinia virus WR infected BALB/c mouse assessed as log reduction of viral titer per gram of spleen at 30 mg/kg, po treated for 5 days after 24 hrs of viral inoculation; format: functional, Orthopoxvirus vaccinia
[13] = Selectivity index, ratio of CC50 for HFF cells to EC50 for Cowpox virus Brighton; format: toxicity, cell-based; conditions: human, read-out: Ratio CC50/EC50
Cowpox virus [14] = assay: Antiviral activity against Cowpox virus Brighton infected BALB/c mouse assessed as mean death day at 10 mg/kg, po treated for 5 days after 24 hrs of viral inoculation; format: functional, Cowpox virus (Brighton Red)
Vaccinia virus [15] = assay: Antiviral activity against Vaccinia virus WR infected BALB/c mouse assessed as mortality at 10 mg/kg, po treated for 5 days after 72 hrs of viral inoculation; format: functional, Orthopoxvirus vaccinia
Vaccinia virus [16] = assay: Antiviral activity against Vaccinia virus WR infected BALB/c mouse assessed as mortality at 10 mg/kg, po treated for 5 days after 24 hrs of viral inoculation; format: functional, Orthopoxvirus vaccinia
Cowpox virus [17] = assay: Antiviral activity against Cowpox virus Brighton infected BALB/c mouse assessed as mean death day at 30 mg/kg, po treated for 5 days after 72 hrs of viral inoculation; format: functional, Cowpox virus (Brighton Red)
Cowpox virus [18] = assay: Antiviral activity against Cowpox virus Brighton infected BALB/c mouse assessed as mortality at 30 mg/kg, po treated for 5 days after 48 hrs of viral inoculation; format: functional, Cowpox virus (Brighton Red)
Vaccinia virus [19] = assay: Antiviral activity against Vaccinia virus Copenhagen in HFF cells assessed as reduction of viral replication after 3 days; format: functional, organism-based; conditions: Orthopoxvirus vaccinia, 72 h
Cowpox virus [20] = assay: Antiviral activity against Cowpox virus Brighton infected BALB/c mouse assessed as mortality at 3 mg/kg, po treated for 5 days after 48 hrs of viral inoculation; format: functional, Cowpox virus (Brighton Red)
Vaccinia virus [21] = assay: Antiviral activity against Vaccinia virus WR infected BALB/c mouse assessed as mortality at 30 mg/kg, po treated for 5 days after 72 hrs of viral inoculation; format: functional, Orthopoxvirus vaccinia
Cowpox virus [22] = assay: Antiviral activity against Cowpox virus Brighton infected BALB/c mouse assessed as mortality at 10 mg/kg, po treated for 5 days after 72 hrs of viral inoculation; format: functional, Cowpox virus (Brighton Red)
Vaccinia virus [23] = assay: Antiviral activity against Vaccinia virus WR in HFF cells assessed as reduction of viral replication after 3 days; format: functional, organism-based; conditions: Orthopoxvirus vaccinia, 72 h
[24] = Selectivity index, ratio of CC50 for HFF cells to EC50 for Vaccinia virus WR; format: toxicity, cell-based; conditions: human, read-out: Ratio CC50/EC50
Cowpox virus [25] = assay: Antiviral activity against Cowpox virus Brighton infected BALB/c mouse assessed as mortality at 3 mg/kg, po treated for 5 days after 24 hrs of viral inoculation; format: functional, Cowpox virus (Brighton Red)
[26] = Selectivity index, ratio of CC50 for HFF cells to EC50 for Vaccinia virus Copenhagen; format: toxicity, cell-based; conditions: human, read-out: Ratio CC50/EC50
Cowpox virus [27] = assay: Antiviral activity against Cowpox virus Brighton infected BALB/c mouse assessed as mortality at 3 mg/kg, po treated for 5 days after 72 hrs of viral inoculation; format: functional, Cowpox virus (Brighton Red)
Cowpox virus [28] = assay: Antiviral activity against Cowpox virus Brighton in HFF cells assessed as reduction of viral replication after 3 days; format: functional, organism-based, Cowpox virus (Brighton Red); conditions: 72 h
Cowpox virus [29] = assay: Antiviral activity against Cowpox virus Brighton infected BALB/c mouse assessed as mortality at 10 mg/kg, po treated for 5 days after 24 hrs of viral inoculation; format: functional, Cowpox virus (Brighton Red)
Cowpox virus [30] = assay: Antiviral activity against Cowpox virus Brighton infected BALB/c mouse assessed as mean death day at 3 mg/kg, po treated for 5 days after 24 hrs of viral inoculation; format: functional, Cowpox virus (Brighton Red)
Cowpox virus [31] = assay: Antiviral activity against Cowpox virus Brighton infected BALB/c mouse assessed as mortality at 10 mg/kg, po treated for 5 days after 48 hrs of viral inoculation; format: functional, Cowpox virus (Brighton Red)
Vaccinia virus [32] = assay: Antiviral activity against Vaccinia virus WR infected BALB/c mouse assessed as mortality at 3 mg/kg, po treated for 5 days after 24 hrs of viral inoculation; format: functional, Orthopoxvirus vaccinia
Cowpox virus [33] = assay: Antiviral activity against Cowpox virus Brighton infected BALB/c mouse assessed as mean death day at 10 mg/kg, po treated for 5 days after 48 hrs of viral inoculation; format: functional, Cowpox virus (Brighton Red)
Vaccinia virus [34] = assay: Antiviral activity against Vaccinia virus WR infected BALB/c mouse assessed as log reduction of viral titer per gram of liver at 30 mg/kg, po treated for 5 days after 24 hrs of viral inoculation; format: functional, Orthopoxvirus vaccinia
Cowpox virus [35] = assay: Antiviral activity against Cowpox virus Brighton infected BALB/c mouse assessed as reduction of virus titer in lung at 30 mg/kg, po treated for 5 days after 24 hrs of viral inoculation; format: functional, organism-based; parameters: dose 30 mg/kg; conditions: Cowpox virus (Brighton Red)
Mus musculus = assay: Toxicity in BALB/c mouse at 30 mg/kg, po; format: organism-based; parameters: dose 30 mg/kg, route oral; conditions: in vivo
Cowpox virus [36] = assay: Antiviral activity against Cowpox virus Brighton infected BALB/c mouse assessed as log reduction of viral titer per gram of liver at 30 mg/kg, po treated for 5 days after 24 hrs of viral inoculation; format: functional, Cowpox virus (Brighton Red)
Vaccinia virus [37] = assay: Antiviral activity against Vaccinia virus WR infected BALB/c mouse assessed as mortality at 3 mg/kg, po treated for 5 days after 72 hrs of viral inoculation; format: functional, Orthopoxvirus vaccinia
Vaccinia virus [38] = assay: Antiviral activity against Vaccinia virus WR infected BALB/c mouse assessed as mortality at 30 mg/kg, po treated for 5 days after 24 hrs of viral inoculation; format: functional, Orthopoxvirus vaccinia
Cowpox virus [39] = assay: Antiviral activity against Cowpox virus Brighton infected BALB/c mouse assessed as mean death day at 10 mg/kg, po treated for 5 days after 72 hrs of viral inoculation; format: functional, Cowpox virus (Brighton Red)

Row | SMILES | Activity (Vaccinia virus [1]) [days] | Activity (Cowpox virus [2]) [days] | Activity (Vaccinia virus [3]) [days] | Activity (Vaccinia virus [4]) | Activity (Vaccinia virus [5]) [days] | Activity (Vaccinia virus [6]) [days] | Activity (Vaccinia virus [7]) [days] | log10PFU (Cowpox virus [8]) [g] | Activity (Vaccinia virus [9]) [days] | Activity (Vaccinia virus [10]) [%] | Activity (Cowpox virus [11]) | log10PFU (Vaccinia virus [12]) [g] | selectivity ratio [13] | Activity (Cowpox virus [14]) [days] | Activity (Vaccinia virus [15]) [%] | Activity (Vaccinia virus [16]) [%] | Activity (Cowpox virus [17]) [days] | Activity (Cowpox virus [18]) [%] | EC50 (Vaccinia virus [19]) [nM] | Activity (Cowpox virus [20]) [%] | other results
1 | CCCCCCCCCCCCCCCCCCOCCOP(=O)(O)CO[C@H](CO)Cn1cnc2c(N)ncnc21 | 9.7 | 13 | 10.5 | Not toxic | 7.9 | 10.3 | 9 | 2.5 | 8.3 | 53 | Not toxic | 4 | 75 | 14 | 33 | 0 | 10.6 | 13 | 10 | 80 | Activity (Vaccinia virus [21]): 73%; Activity (Cowpox virus [22]): 67%; EC50 (Vaccinia virus [23]): 100 nM; selectivity ratio [24]: 15; Activity (Cowpox virus [25]): 60%; selectivity ratio [26]: 150; Activity (Cowpox virus [27]): 93%; EC50 (Cowpox virus [28]): 20 nM; Activity (Cowpox virus [29]): 7%; Activity (Cowpox virus [30]): 13.7 days; Activity (Cowpox virus [31]): 20%; Activity (Vaccinia virus [32]): 67%; Activity (Cowpox virus [33]): 11 days; log10PFU (Vaccinia virus [34]): 4 g; Activity (Cowpox virus [35]): inactive; Activity (Mus musculus): Non-toxic; log10PFU (Cowpox virus [36]): 2.5 g; Activity (Vaccinia virus [37]): 40%; Activity (Vaccinia virus [38]): 27%; Activity (Cowpox virus [39]): 12.2 days
2 | CCCCCCCCCCCCCCCCOCCCOP(=O)(O)CO[C@H](CO)Cn1cnc2c(N)ncnc21 | 11 | 15 | 8 | Not toxic | 9.2 | 8 | 7.8 | 2.5 | 7 | 33 | Not toxic | 4 | 485 | 13.8 | 53 | 0 | 6.5 | 13 | 10 | 87 | Activity (Vaccinia virus [21]): 7%; Activity (Cowpox virus [22]): 73%; EC50 (Vaccinia virus [23]): 300 nM; selectivity ratio [24]: 32; Activity (Cowpox virus [25]): 93%; selectivity ratio [26]: 970; Activity (Cowpox virus [27]): 87%; EC50 (Cowpox virus [28]): 20 nM; Activity (Cowpox virus [29]): 67%; Activity (Cowpox virus [30]): 11.4 days; Activity (Cowpox virus [31]): 27%; Activity (Vaccinia virus [32]): 27%; Activity (Cowpox virus [33]): 12.3 days; log10PFU (Vaccinia virus [34]): 4 g; Activity (Cowpox virus [35]): inactive; Activity (Mus musculus): Non-toxic; log10PFU (Cowpox virus [36]): 2.5 g; Activity (Vaccinia virus [37]): 87%; Activity (Vaccinia virus [38]): 13%; Activity (Cowpox virus [39]): 12.3 days
